Data on 2 compounds can be found in PMC12005787, “Synthetic Lethality of SHP2 and XIAP Suppresses Proliferation and Metastasis in KRAS‐mutant Nonsmall Cell Lung Cancer” (Advanced Science, 2025).

Assay [1] concerns RAS wild‐type and mutant cells. As to the kind of experiment: Colony formation assay. The class given is cell-based. On the procedure:
(§1) supplies are listed in Supplementary Table S5. […]
Colony formation experiment
Cells in the logarithmic growth phase were digested thoroughly into a single dispersed state and inoculated into six-well plates at a density of 100 well-1. Subsequently, different concentrations of the drugs were added for 14 d, consecutively, and the solution was changed every 2 d. Next, the cells were fixed with 4% formaldehyde, stained with 0.1% crystal violet, and the number of clones was counted using an inverted microscope. […]

The next assay has as its system NCI‐H2122 and A549 cells. Nature of the assay: Intracellular ATP assay. The following applies: monolayer 24 h and 3D culture 48 h. The assay is classed as cell-based, human. On the procedure:
as §1
For the adherent cell viability assay, cells in the logarithmic growth phase were seeded in 96-well culture plates at a density of 5×103 well-1 and incubated overnight. Diluted compounds or DMSO were added, or specific treatments were incubated at 37 °C and 5% CO2 for 24 h or 48 h. Cell viability was determined using CCK-8 or CellLightTM Cell Viability Assay Kit, according to the manufacturer's protocol. The luminescence signals of the treated samples were normalized to those of the DMSO group.
For spherical cell viability assays, cells in the logarithmic growth phase were inoculated ata density of 4×10^3 well-1 into 96-well spherical cell microplates and incubated at 37 °C, 5% CO2 for 24 h or 48 h. Cell viability was measured using the CellTiter-Glo® Luminescent Cell Viability 3D Cell Viability Assay Kit, according to the manufacturer’s protocol. The remaining steps were the same as those described above. […]

In a further assay the target is T1, His‐ΔSHP2 (Homo sapiens, UniProt Q06124).
T1 construct: His‐ΔSHP2, encompassing the peptide from amino acids 205–593 retaining PTP activity; His; made in house; host or cells: E. coli
T1 sequence (Q06124 205-593): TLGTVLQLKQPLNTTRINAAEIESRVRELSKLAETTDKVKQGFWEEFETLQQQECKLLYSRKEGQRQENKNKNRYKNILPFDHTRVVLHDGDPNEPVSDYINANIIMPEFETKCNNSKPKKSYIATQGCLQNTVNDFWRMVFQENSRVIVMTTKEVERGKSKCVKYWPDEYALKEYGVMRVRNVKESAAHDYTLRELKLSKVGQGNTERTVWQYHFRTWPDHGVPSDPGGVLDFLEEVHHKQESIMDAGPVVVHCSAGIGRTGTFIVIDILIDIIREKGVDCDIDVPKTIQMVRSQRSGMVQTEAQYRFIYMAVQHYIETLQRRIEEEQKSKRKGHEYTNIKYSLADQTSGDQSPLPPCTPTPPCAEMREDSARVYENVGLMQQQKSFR
Nature of the assay: Reversibility of embelin-SHP2 binding (dialysis). The class given is biochemical. The procedure:
To test whether embelin and SHP2 were reversibly bound, the purified His‐ΔSHP2 fusion protein was dialyzed overnight in dialysis buffer (10 mM HEPES, 0.5 M NaCl, 1 mM TCEP, and 10% glycerol, pH 7.5), and the protein activity was detected by DiFMUP. After incubating embelin with dialyzed protein at 37 °C for 30 min, the mixed solution was dialyzed overnight or ultrafiltered, with DMSO as a control, and protein activity was detected by DiFMUP to determine the mode of protein‐compound binding.

The target in a further assay is T2, SHP2 (Homo sapiens, UniProt Q06124).
T2 construct: endogenous in cells; host or cells: NCI-H2122
T2 sequence (Q06124 1-593): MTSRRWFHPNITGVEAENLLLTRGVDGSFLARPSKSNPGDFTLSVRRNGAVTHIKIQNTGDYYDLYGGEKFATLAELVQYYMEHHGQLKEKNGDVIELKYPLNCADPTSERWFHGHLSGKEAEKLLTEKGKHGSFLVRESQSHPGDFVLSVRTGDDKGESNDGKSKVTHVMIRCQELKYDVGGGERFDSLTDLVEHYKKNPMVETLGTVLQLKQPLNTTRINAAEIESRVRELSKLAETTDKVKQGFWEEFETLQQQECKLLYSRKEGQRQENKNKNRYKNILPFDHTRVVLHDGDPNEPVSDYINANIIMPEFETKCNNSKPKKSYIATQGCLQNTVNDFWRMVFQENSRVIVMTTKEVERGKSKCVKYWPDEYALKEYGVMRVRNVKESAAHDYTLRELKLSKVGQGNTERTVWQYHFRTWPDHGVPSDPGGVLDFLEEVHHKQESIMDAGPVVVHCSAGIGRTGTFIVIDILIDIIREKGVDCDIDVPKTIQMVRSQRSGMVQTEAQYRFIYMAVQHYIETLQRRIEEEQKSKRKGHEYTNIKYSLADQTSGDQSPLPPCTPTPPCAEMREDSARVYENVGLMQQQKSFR
As to the kind of experiment: Cellular thermal shift assay (CETSA). The assay is classed as binding. The following applies: NCI‐H2122 cell lysate. On the procedure:
(§2) NCI‐H2122 cells were harvested and resuspended with pre‐cooled PBS containing 1% cocktail, which was then frozen in liquid nitrogen for 5 min and thawed in a water bath at 37 °C for 5 min for three repetitions. The supernatant was collected via centrifugation at 4 °C (15 000 × g, 20 min), divided into two equal portions; one was added with test drugs or various concentrations of embelin, and the other was added with DMSO as control and subsequently incubated at 25 °C for 30 min. All samples were heated at temperatures ranging from 52–70 °C for 3 min, and subsequently in an ice bath for 3 min and collected by centrifugation at 4 °C (15 000 × g, 20 min), and added with protein sampling buffer at 100 °C for 5 min, followed by analysis of protein stability using western blotting.

The next assay concerns the target T3, His‐SHP2 (full‐length) (Homo sapiens, UniProt Q06124).
T3 construct: His; made in house; host or cells: E. coli
As to the kind of experiment: Full-length SHP2 activity activated by bis-phosphorylated Gab1 peptide. The class given is biochemical. On the procedure:
For detection of SHP2 allosteric regulation by the compounds, the soluble fusion His‐SHP2 protein was cloned, expressed, and purified by constructing a pET28a‐PTPN11 recombinant plasmid in E. coli. Subsequently, 148 nM His‐SHP2 protein with 14.8 µM peptide (bis‐phosphorylated peptide from Gab1, with the sequence of: H2N‐VE(pY)LDLDLD(PEG8)RVD‐(pY)VVVDQQ‐amide) was mixed thoroughly in reaction buffer and incubated for 30 min at 37 °C in the dark. The fluorescence intensity was detected by DiFMUP after addition of different drugs and incubation at 37 °C for 30 min, with SHP099 and Na3VO4 as positive controls and unactivated protein as negative controls.

Another assay concerns the target T4, XIAP (Homo sapiens, UniProt P98170).
T4 construct: endogenous in cells; host or cells: NCI-H2122
As to the kind of experiment: Cellular thermal shift assay (CETSA). The class given is binding. The following applies: 56 and 62 ℃. On the procedure: as §2

T4 sequence (P98170 whole entry): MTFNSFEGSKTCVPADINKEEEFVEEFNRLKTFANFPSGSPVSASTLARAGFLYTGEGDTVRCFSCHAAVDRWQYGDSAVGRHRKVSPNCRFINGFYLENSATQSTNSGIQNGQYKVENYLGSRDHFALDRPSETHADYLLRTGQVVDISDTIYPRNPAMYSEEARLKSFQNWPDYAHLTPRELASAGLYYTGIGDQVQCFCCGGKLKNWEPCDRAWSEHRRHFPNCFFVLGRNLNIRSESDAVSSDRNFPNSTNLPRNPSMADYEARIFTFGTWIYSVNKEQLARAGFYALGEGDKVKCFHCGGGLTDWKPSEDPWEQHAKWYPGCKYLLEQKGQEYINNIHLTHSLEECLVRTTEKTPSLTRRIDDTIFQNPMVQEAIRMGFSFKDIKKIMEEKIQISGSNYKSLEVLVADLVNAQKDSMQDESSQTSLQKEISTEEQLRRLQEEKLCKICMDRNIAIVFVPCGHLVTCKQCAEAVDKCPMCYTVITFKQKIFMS

`CCCCCCCCCCCC1=C(O)C(=O)C=C(O)C1=O` [Embelin]: the colony formation result in assay [1] is given as “cytotoxic effects on both RAS”. The “effect on intracellular ATP” value in the assay on NCI‐H2122 and A549 cells is on record as “significantly inhibited ATP release”. Also, the “mode of binding to SHP2 (dialysis)” value on His‐ΔSHP2 was “noncovalent”. For the same compound, the “effect on SHP2 protein stability (CETSA)” value on SHP2 is “increased the stability of SHP2 protein”. On His‐SHP2 (full‐length), the “effect on SHP2 full‐length activity allosterically activated by bis‐phosphorylated Gab1 peptide” value is recorded as “no effect”.

As for `CC1(N)CCN(c2cnc(-c3cccc(Cl)c3Cl)c(N)n2)CC1` [SHP099], the “effect on XIAP protein stability (CETSA)” value at XIAP is “did not affect XIAP protein stability”.
